Converted amounts (≈) assume the structure as drawn.

Here are results for 3 compounds from article PMC6767236, “Selective Cannabinoid 2 Receptor Agonists as Potential Therapeutic Drugs for the Treatment of Endotoxin-Induced Uveitis” (Molecules, 2019).

In data set [1] the test system is neutrophils from WT mice. The data set is described as follows: Transwell neutrophil migration assay towards CXCL2, WT neutrophils. It counts as cell-based, mouse. Particulars: for CXCL2-induced neutrophil migration: WT neutrophils pre-treated 30 min, 10 nM CXCL2, RO6851228 at 0.01–1.0 μM. On the procedure: As described previously, mouse neutrophils were isolated from the bone marrow of mice. Mice were euthanized, femur and tibia were dissected and flushed with ice-cold 1× Hanks balanced salt solution (HBSS; supplemented with […], pH7.5, and 0.5 mM EDTA; Invitrogen) through a sterile filter (70 μm). The suspension was centrifuged at 300× g for 12 min at 4 °C. EasySep™ neutrophil enrichment kit ([…] Technologies Inc., Vancouver, BC, Canada) was used to isolate neutrophils according to the manufacturer’s instructions. The isolated neutrophils were then washed once and the pelleted cells were suspended in RPMI (Invitrogen) containing 1% heat-inactivated fetal bovine serum (FBS, Invitrogen) and used immediately for neutrophil migration experiments or processed for adoptive transfer. The murine neutrophil isolation protocol routinely yields cell suspensions that are >95% pure and viable, as determined by cresyl violet and trypan blue exclusion, respectively.
Neutrophil migration assays were performed using a Transwell migration assay. Isolated neutrophils (1 × 10^5 cells/100 μL) from WT or CB2R^-/- mice were incubated with vehicle (0.01% DMSO), or various concentrations of RO8671304 or RO6851228 at 37 °C, 5% CO2 for 30 min. Cells were then loaded into the upper chamber of 3 μm Transwell inserts (Corning Life Sciences, Corning, NY, USA) coated with 5% FBS. Transwells were placed in 24-well plates containing RPMI (1% FBS) alone or 10^−8 M chemokine C–X–C motif ligand 2 (CXCL2)/[…] (Peprotech, Rocky Hill, NJ, USA). Plates were incubated for 1 h at 37 °C, 5% CO2. To determine the number of neutrophils that migrated from the top to the bottom chamber, the filter was removed and neutrophils in the lower chamber gently pipetted to evenly distribute and sink to the bottom of the pate. An Olympus inverted bright-field microscope with an Infinity 3 camera (Lumenera, Ottawa, ON, Canada) was used to photograph 12 random fields (10× magnification) of each well. The number of migrated neutrophils was then determined using ImageJ. […]

The nature of data set [2]: Kinetic lyophilization solubility assay. The format is physicochemical. Particulars: 0.05 M phosphate buffer, aqueous buffer, thermodynamic from solid; phosphate buffer pH 6.5. The method, then:
The X-ray structure of CB2R complexed with the antagonist AM10257 (5zty) was used as a template to dock CB2R ligands. The docking experiments were performed with the software GOLD ([…]) with default settings. The best 10 docking poses for each compound were energy-minimized within the binding pocket using MOE ( molecular operating environment ver. 2014.09, Chemical Computing Group, Montreal, Canada) and examined visually to select the most reasonable docking mode with respect to molecular interactions and internal conformational strain. The final selection was based on checking consiste ncy with the available structure –activity relationship information.
Kinetic Lyophilization Solubility Assay
The solubility of a test compound in phosphate buffer at pH 6.5 from evaporated DMSO stock solution is measured over time, resulting in the kinetic solubility of the compound. Samples were prepared in duplicate from 10 mM DMSO stock solutions. […] The filtrate and its 1 :10 dilution were analyzed by direct UV measurement or by HPLC -UV. […]
Approximately 8.6 mg test compound per milliliter solvent/vehicle was stirred in HPLC vials (9 × 12 × 32 mm, Waters) at 350 rpm for 15 h. […] Addition of solid material was repeated up to 96 h or until residual solid particles could be detected. […] The filtrates were diluted in ethanol and analyzed for content by UPLC. […]

Data set [3] has as its target T1, mouse CB2R (Mus musculus, UniProt P47936). Set-up: bgal (beta-galactosidase fragment of the PathHunter system, named only in the cell line's name); host or cells: CHO-K1 (CHOK1mCB2_bgal). The conditions noted are these: [3H]-CP55940 displacement; * previously published; cited from earlier work.
For data set [4], the target named is T1, mouse CB2R. Also noted: bgal (beta-galactosidase fragment of the PathHunter system, named only in the cell line's name); host or cells: CHO-K1 (CHOK1mCB2_bgal). Particulars: * previously published; read-out: mouse CB2R: cAMP EC50; cited from earlier work.

T1 sequence (P47936 whole entry, the tested form may be a part): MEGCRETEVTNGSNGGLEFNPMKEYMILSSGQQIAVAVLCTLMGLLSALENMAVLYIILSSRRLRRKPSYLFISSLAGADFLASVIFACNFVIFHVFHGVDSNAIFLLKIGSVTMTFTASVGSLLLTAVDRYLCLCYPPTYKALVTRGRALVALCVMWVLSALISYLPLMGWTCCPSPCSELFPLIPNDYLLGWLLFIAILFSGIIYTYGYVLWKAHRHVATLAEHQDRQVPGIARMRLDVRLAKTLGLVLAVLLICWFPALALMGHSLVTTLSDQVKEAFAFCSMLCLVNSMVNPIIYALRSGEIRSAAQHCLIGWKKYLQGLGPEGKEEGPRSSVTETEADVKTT

The kinetic solubility is solubility judged after dilution from a stock solution rather than from solid. Broadly, the Ki is the equilibrium dissociation constant of an inhibitor or competing ligand from its target. By EC50 is commonly meant the midpoint of the concentration-response curve. `CNC(=O)[C@@H](NC(=O)c1cc(OCC2(C)COC2)c(C2CC2)cn1)C(C)(C)C` [RO6851228, 5-Cyclopropyl-N-[(2S)-3,3-dimethyl-1-(methylamino)-1-oxobutan-2-yl]-4-[(3-methyloxetan-3-yl)methoxy]pyridine-2-carboxamide]: in data set [1], the “CXCL2-induced neutrophil migration” value was “did not affect CXCL2-induced neutrophil migration”. Besides, the kinetic solubility at 15 h in data set [2] amounted to 174 ± 47 µg/mL (≈ 447 µM). Further, the Ki in data set [3] is 1 nM. The EC50 in data set [4] was 4 nM.

Regarding `CC(C)(C)c1nc(N2CC[C@H](O)C2)c2nnn(Cc3nnnn3C3CC3)c2n1` [RO6871304, (3S)-1-{5-tert-butyl-3-[(1-cyclopropyl-1H-tetrazol-5-yl)methyl]-3H-[1,2, 3]triazolo[4,5-d]pyrimidin-7-yl}pyrrolidin-3-ol], the IC50 in data set [1] (Neutrophil, towards 10 nM CXCL2, WT mouse neutrophils, read-out: IC50 for inhibition of neutrophil migration) turned out to be 6.6 nM. Besides, the “CXCL2-induced neutrophil migration” value in data set [1] is given as “inhibited neutrophil migration towards CXCL2 in a dose-dependent fashion”.

Regarding `Cc1nc([C@](C)(CC2CC2)NC(=O)c2cc(OCC(F)(F)F)c(C3CC3)cn2)no1` [RO6871085, 5-Cyclopropyl-N-[(2S)-1-cyclopropyl-2-(5-methyl-1,2,4-oxadiazol-3-yl)propan-2-yl]-4-(2,2,2-trifluoroethoxy)pyridine-2-carboxamide], the kinetic solubility at 15 h in data set [2] stood at 4.2 ± 0.1 µg/mL (≈ 9.9 µM). Also, the Ki in data set [3] is 6 nM. Besides, in data set [4], the EC50 is 3 nM.
